The text below walks through data of US20260053931A1, “MDM2 TARGETING PROTACS” (THE WISTAR INSTITUTE OF ANATOMY AND BIOLOGY, priority 2023, published 2026).

Data set [1] deals with T1, Mdm2 (Homo sapiens, UniProt Q00987). The experiment in a line: In-Cell Western, mut p53 MDA-MB-231 cell line. Set-up: endogenous in cells; host or cells: MCF7 (A8); MDA-MB-231 (A9). It is filed as cell-based. To be noted: mutant p53 MDA-MB-231. The method, then: (§1) Cells were seeded at decreasing cell number from 15K cells to 2K cells. The Mdm2 primary antibody was tested at 1:200 and 1:300 dilution. The secondary antibody conjugated to IRDye800CW was used with 1:800 dilution, and CellTag 700 Stain was used at 1:1000 dilution as manufacture recommended. The linearity of cell number versus signal was generated with Prism. The signal over background ratio was also calculated.
(§2) The potential PROTACs were evaluated in the wt p53 MCF7 cell line and in the mut p53 MDA-MB-231 cell line. Importantly these were compared to MD-224, which was recently reported to potently degrade Mdm2 in RS4; 11 leukemia cells (Li et al., 2019). Assay linearity was performed confirming a strong 4-fold signal to noise in the assay. A series of bi-functional molecules were then treated and evaluated for protein level in the assay over time from 2 h-48 h. […] In this wt p53 cancer cell line the stabilization of p53 (FIG. 15B), and subsequent p53-mediated transcriptional upregulation of Mdm2 make it difficult to observe degradation. […] These compounds were evaluated in the mutant p53 cancer cells. […] In this cell line, it takes approximately 16-24 h to detect the degradation. […] The difference in the molecules is that MD-224 utilizes a CRBN recruiting ligand.
Target sequence in this assay (Q00987 whole entry): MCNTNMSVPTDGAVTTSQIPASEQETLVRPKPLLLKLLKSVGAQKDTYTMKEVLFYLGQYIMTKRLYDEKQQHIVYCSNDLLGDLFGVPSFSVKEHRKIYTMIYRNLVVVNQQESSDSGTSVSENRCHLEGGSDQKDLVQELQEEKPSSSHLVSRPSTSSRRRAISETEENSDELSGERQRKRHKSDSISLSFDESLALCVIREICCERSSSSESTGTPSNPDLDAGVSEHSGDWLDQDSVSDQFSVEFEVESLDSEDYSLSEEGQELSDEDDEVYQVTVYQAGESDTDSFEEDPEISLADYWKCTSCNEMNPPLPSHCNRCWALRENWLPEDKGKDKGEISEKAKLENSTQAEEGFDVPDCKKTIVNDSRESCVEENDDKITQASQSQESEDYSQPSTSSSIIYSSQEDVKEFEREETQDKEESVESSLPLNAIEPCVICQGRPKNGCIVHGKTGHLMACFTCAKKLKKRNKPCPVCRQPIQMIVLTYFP

For data set [2], the target named is T1, Mdm2. Put plainly: Mdm2 HTRF binding assay (Table 2). To be noted: read-out: Mdm2 HTRF IC50. An excerpt: An HTRF binding assay was developed using a biotinylated peptide containing the Mdm2-binding domain of p53 and a recombinant GST-tagged N-terminus of Mdm2 containing the p53-binding domain. HTRF is a proximity-based fluorescence energy transfer (FRET) assay that takes advantage of the unique time-resolved fluorescence of the lanthanide chelates, such as terbium and europium. HTRF IC50 values are provided for all key compounds (FIG. 13C, FIG. 19B, and Table 2).
(Time-resolved FRET reads energy transfer from a long-lived donor to a nearby acceptor.)
Target sequence in this assay (Q00987 26-109 limits assumed): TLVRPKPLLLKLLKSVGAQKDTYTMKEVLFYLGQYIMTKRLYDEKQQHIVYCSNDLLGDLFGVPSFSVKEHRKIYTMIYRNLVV

Data set [3] addresses VHL (Homo sapiens, UniProt P40337). Put plainly: HTRF binding assay for VHL (Table 2). An excerpt:
(§3) Biochemical assays in 384-well format have established to assess the binding of newly synthesized PROTACs to the appropriate E3 ligase using HTRF technology. In these assays an anti-HIS antibody conjugated to terbium was used as the donor fluor, and either a Cy5 labeled small molecule probe, or a biotinylated peptide that is bound to a streptavidin acceptor.

Data set [4] relates to mut p53 MDA-MD-231 cells. The experiment in a line: Live cell count with CellTag700 Stain in ICW format. The protocol:
Cells are seeded in 96 half area well plates (black clear bottom) and cultured overnight. Then they are treated with compounds, fixed with 4% paraformaldehyde for 20 minutes, and permeabilized in 0.1% Triton. They are then treated with the primary antibody and secondary antibody conjugated to IRDye800CW or treated with CellTag 700 Stain. The plates are then scanned on the OdysseyCLX and the data processed to provide a dose response curve.
Since genetic deletion of Mdm2 induces p73 and induces apoptosis in p53 mutant and deficient cancer cells, YX-02-030 and YX-02-228 were evaluated for their effect on cell viability. First, the CellTag700 Stain was utilized to count the number of live cells in the ICW format.

Data set [5] has as its system MCF7. The experiment in a line: Cytotoxicity to wild type p53 cells. It is filed as cell-based. The following applies: Homo sapiens.
Data set [6] addresses T2, human cereblon (CRBN) complex (Homo sapiens, UniProt Q96SW2).
T2 construct: purchased R & D systems
Put plainly: HTRF binding assay for Cereblon (Table 2).
Description: as §3
Cereblon: Recombinant human cereblon (CRBN) complex, including CUL4A, RBX1, DDB1 and CRBN is purchased from R & D systems. This four-member protein complex has an N-terminal HIS tag on the CUL4A subunit. The CRBN complex is diluted in assay buffer containing anti-HIS-Tb Cryptate Gold (CisBio) and is added to low volume 384-well plates. Test compounds in 100% DMSO are added to the plates followed by the Cy5-labeled lenolidamide probe. After 1 hour the HTRF signal is measured on the Envision. Data are normalized to % inhibition. The typical signal-to-noise is 5:1. Bi-functional molecules containing the Cereblon ligands are tested in TABLE 2 (see YX-02-041).

Data set [7] deals with Mdm2-/-p53-/- sarcoma cells. The experiment in a line: Murine Mdm2-/-p53-/- sarcoma cells, MTT. It is filed as cell-based, mouse. To be noted: MTT assay, 48 hrs. An excerpt:
A-B. Murine Mdm2+/+p53-null sarcoma cells treated with Mdm2 PROTAC (YX-02-030), control YX-02-023 (−), or vehicle (DMSO). A. Western blots after 24 hrs (cleaved caspase 3, CC3. Mdm2^−/−p53^−/− fibroblasts were a control for the Western blot). B. Dose response curve (MTT assay, 48 hrs). C. Dose response curves of murine Mdm2^−/−p53^−/− sarcoma cells treated with Mdm2 PROTAC (YX-02-030), negative controls (−), a Bcl2/Bclx/Bclw inhibitor (+), or vehicle control (MTT assay, quadruplicate, 48 hrs- MTT assay, B-C graphed relative to DMSO).
For orientation: Tetrazolium dyes change colour on reduction, which living cells bring about.

Data set [8] addresses T1, Mdm2. Put plainly: In-Cell Western, wt p53 MCF7 cell line. It is filed as cell-based. The arrangement: endogenous in cells; host or cells: MCF7 (A8); MDA-MB-231 (A9). The following applies: wt p53 MCF7, 2 h-48 h. The method, then:
as §1, §2
Target sequence in this assay (Q00987 whole entry): as the sequence (Q00987 whole entry) above

Data set [9] deals with T3, VHL complex (Homo sapiens, UniProt P40337).
T3 construct: purchased R&D systems E3-655-025
The experiment in a line: Inhibition of HIF-1α peptide binding to the VHL complex using HTRF (Table 3). The following applies: mean ± S.E.M. of three replications; read-out: VHL-HIFa peptide IC50. The method, then: Assays contained 2 nM of HIS-VHL complex (R&D systems, E3-655-025), 2 nM of biotin-hydroxyproline-HIF1α peptide (Biotin-[…] (SEQ ID NO: 2), X=hydroxyproline), 0.3 nM anti-HIS-Tb HTRF donor antibody and 4 nM streptavidin-d2 HTRF acceptor (PerkinElmer) in a final volume of 10 μL of 25 mM HEPES, pH 7.4, 150 mM NaCl, 5 mM DTT, 0.005% Tween20 in white low volume 384-well plates. Both HIS-VHL complex and biotin-HIF1α peptide were pre-incubated with their respective HTRF antibodies for 15 min. Test compounds were solubilized at 10 mM in DMSO and concentration series was added to the assay plate using the Echo 650 acoustic liquid handling system by direct dilution. The final amount of DMSO added to the assay was 100 nL […]. Compounds were pre-incubated with HIS-VHL complex before the addition of the biotin-HIF1α peptide. After a 2 hr incubation, the HTRF signal was measured using the ClarioStar plate reader (BMG Labtech). […] IC50 values were determined from nonlinear regression fits of a data to a four parameter dose-response equation using XLFit (IDBS). Data are the means±S.E.M. of three replications. The data is described in Table 3 above.

What is called IC50 is the concentration that inhibits the measured activity by half.

Sequence of VHL (P40337 whole entry): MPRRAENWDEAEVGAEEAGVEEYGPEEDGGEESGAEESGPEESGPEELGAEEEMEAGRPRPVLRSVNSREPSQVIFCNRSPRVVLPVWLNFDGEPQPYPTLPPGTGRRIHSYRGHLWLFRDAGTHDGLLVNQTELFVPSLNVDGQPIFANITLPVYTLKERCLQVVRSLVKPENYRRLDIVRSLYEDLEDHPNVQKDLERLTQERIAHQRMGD
Sequence of VHL (Q15370 whole entry partner): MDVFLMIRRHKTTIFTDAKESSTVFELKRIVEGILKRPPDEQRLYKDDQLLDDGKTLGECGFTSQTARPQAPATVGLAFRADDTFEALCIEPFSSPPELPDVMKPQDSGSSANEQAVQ
Sequence of VHL (Q15369 whole entry partner): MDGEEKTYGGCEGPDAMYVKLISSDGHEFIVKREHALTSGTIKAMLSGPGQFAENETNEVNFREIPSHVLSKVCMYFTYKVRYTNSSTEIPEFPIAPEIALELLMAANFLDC
T3 sequence (P40337 whole entry): as the sequence (P40337 whole entry) above
T3 sequence (Q15370 whole entry partner): as the sequence (Q15370 whole entry partner) above
T3 sequence (Q15369 whole entry partner): as the sequence (Q15369 whole entry partner) above
T3 sequence (Q13617 whole entry partner): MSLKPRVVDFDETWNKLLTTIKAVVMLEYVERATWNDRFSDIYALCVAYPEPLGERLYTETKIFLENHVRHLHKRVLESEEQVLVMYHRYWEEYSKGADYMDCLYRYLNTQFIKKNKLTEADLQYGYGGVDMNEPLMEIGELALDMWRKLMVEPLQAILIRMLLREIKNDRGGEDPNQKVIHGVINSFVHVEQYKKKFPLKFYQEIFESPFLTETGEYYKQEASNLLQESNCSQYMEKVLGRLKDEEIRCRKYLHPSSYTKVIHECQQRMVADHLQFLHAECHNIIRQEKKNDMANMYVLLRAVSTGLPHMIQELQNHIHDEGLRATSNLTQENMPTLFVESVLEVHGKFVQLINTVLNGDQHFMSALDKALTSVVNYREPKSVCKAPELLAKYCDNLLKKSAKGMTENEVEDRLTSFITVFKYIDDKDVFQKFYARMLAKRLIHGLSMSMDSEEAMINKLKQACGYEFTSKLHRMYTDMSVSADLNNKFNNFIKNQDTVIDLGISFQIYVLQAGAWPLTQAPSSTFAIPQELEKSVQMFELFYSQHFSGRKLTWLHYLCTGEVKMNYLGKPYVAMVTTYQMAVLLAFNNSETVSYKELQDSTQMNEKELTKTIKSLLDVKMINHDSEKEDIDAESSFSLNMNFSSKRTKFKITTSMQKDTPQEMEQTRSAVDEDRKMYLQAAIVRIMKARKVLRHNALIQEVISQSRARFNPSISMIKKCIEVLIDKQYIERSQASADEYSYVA
T3 sequence (P62877 whole entry partner): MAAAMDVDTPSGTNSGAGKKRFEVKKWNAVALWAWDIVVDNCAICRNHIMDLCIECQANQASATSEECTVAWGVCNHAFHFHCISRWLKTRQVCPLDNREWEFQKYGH
T2 sequence (Q96SW2 whole entry): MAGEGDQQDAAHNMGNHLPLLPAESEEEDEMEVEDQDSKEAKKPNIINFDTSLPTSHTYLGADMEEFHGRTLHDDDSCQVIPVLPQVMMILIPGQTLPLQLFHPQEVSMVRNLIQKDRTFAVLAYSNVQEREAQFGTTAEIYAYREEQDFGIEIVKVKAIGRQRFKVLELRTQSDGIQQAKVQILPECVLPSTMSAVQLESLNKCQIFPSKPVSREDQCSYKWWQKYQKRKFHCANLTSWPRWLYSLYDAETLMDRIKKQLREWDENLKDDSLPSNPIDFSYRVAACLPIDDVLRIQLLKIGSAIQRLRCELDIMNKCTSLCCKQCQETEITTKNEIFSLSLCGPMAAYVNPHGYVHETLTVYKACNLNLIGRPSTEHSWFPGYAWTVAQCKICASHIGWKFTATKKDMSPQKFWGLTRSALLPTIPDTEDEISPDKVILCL
T2 sequence (Q16531 whole entry partner): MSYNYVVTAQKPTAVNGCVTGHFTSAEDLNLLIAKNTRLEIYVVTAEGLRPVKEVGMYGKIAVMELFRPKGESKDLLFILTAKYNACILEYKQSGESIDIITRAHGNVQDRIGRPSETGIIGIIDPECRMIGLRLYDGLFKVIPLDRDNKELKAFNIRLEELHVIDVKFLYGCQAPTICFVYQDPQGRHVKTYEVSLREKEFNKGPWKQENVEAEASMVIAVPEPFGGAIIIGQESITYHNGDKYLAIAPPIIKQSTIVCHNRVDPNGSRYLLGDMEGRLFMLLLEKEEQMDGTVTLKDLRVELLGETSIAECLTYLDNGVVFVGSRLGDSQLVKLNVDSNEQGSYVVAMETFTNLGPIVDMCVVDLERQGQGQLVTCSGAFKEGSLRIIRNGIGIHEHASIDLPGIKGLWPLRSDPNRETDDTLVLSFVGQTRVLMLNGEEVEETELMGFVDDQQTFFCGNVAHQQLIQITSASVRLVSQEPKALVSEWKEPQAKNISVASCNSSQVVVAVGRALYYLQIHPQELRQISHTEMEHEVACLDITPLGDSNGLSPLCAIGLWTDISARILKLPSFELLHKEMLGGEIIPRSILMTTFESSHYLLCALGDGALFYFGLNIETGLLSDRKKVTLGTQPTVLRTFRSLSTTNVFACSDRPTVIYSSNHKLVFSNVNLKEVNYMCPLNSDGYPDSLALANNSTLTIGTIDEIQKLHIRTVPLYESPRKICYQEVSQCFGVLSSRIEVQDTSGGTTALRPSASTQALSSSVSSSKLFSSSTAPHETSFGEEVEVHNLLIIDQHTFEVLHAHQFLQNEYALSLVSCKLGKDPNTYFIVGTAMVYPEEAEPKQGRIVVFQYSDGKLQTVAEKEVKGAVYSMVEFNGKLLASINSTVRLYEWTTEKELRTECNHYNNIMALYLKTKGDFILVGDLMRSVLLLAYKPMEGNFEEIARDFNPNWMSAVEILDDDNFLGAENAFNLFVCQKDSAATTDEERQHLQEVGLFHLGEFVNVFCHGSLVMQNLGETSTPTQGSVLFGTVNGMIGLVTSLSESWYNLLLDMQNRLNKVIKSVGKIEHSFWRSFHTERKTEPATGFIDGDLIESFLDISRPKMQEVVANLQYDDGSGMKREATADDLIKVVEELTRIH
T2 sequence (Q13619 whole entry partner): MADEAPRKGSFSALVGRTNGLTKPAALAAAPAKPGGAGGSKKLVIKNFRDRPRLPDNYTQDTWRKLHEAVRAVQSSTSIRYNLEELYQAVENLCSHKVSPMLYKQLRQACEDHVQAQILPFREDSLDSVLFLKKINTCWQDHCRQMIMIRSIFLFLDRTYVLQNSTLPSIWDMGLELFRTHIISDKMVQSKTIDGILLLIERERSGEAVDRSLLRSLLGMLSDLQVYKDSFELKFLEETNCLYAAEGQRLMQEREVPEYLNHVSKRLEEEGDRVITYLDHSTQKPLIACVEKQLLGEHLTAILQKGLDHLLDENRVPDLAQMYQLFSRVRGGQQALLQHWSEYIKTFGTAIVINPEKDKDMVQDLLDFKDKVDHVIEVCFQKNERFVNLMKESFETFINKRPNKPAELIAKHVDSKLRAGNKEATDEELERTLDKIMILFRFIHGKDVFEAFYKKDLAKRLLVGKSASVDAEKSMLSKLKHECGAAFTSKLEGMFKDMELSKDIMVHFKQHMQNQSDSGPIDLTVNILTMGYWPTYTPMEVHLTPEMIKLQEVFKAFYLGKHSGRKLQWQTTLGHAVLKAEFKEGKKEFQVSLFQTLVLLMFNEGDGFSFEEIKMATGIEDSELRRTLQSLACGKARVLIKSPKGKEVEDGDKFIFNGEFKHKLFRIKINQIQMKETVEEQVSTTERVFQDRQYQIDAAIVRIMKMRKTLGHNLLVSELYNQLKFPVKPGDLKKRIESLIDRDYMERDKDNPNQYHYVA
T2 sequence (P62877 whole entry partner): as the sequence (P62877 whole entry partner) above

With `CCOc1cc(C(C)(C)C)ccc1C1=N[C@@](C)(c2ccc(Cl)cc2)[C@@](C)(c2ccc(Cl)cc2)N1C(=O)N1CCN(CC(=O)NCCCCNC(=O)COc2cccc3c2C(=O)N(C2CCC(=O)NC2=O)C3=O)CC1` (mixture of isomers) [YX-02-041, 2-(4-((4S,5R)-2-(4-(tert-butyl)-2-ethoxyphenyl)-4,5-bis(4-chlorophenyl)-4,5-dimethyl-4,5-dihydro-1H-imidazole-1-carbonyl)piperazin-1-yl)-N-(4-(2-((2-(2,6-dioxopiperidin-3-yl)-1,3-dioxoisoindolin-4-yl)oxy)acetamido)butyl)acetamide], the Mdm2 degradation entry in data set [1] was “did not provide robust degradation”. For the same compound, the IC50 is 0.003 µM in data set [2], over 10 µM in data set [3] and about 20 µM in data set [5]. Further, the “cytotoxicity to mutant p53 cells” value in [4] (other studies, compared with MCF7) is on record as “much less cytotoxic”.
Take `CCOc1cc(C(C)(C)C)ccc1C1=NC(C)(c2ccc(Cl)cc2)C(C)(c2ccc(Cl)cc2)N1C(=O)N1CCN(CC(=O)N[C@H](C(=O)N2C[C@H](O)C[C@H]2C(=O)NCc2ccc(-c3scnc3C)cc2)C(C)(C)C)CC1` (stereo in doubt) [YX-02-230, 1-(2-(2-(4-((4S,5R)-2-(4-(tert-butyl)-2-ethoxyphenyl)-4,5-bis(4-chlorophenyl)-4,5-dimethyl-4,5-dihydro-1H-imidazole-1-carbonyl)piperazin-1-yl)acetamido)-3,3-dimethylbutanoyl)-4-hydroxy-N-(4-(4-methylthiazol-5-yl)benzyl)pyrrolidine-2-carboxamide]: the IC50 was over 10 µM in data set [6] and 0.018 µM in data set [2].
Consider `CC1(C)CCC(c2ccc(Cl)cc2)=C(CN2CCN(c3ccc(C(=O)NS(=O)(=O)c4ccc(N[C@H](CCN5CCOCC5)CSc5ccccc5)c(S(=O)(=O)C(F)(F)F)c4)cc3)CC2)C1` [ABT-263/Navitoclax, Navitoclax, reference compound], for which the “response of Mdm2-/-p53-/- sarcoma cells” value in [7] was “responsive”.
In the case of `O=C1CCC(N2Cc3c(C#CCCCNC(=O)c4ccc(NC(=O)[C@@H]5NC6(CCCCC6)[C@@]6(C(=O)Nc7cc(Cl)ccc76)[C@H]5c5cccc(Cl)c5F)cc4)cccc3C2=O)C(=O)N1` (stereo partly drawn) [MD-224, reference compound], the Mdm2 degradation entry in [1] is “did not reduce Mdm2 protein level”. The “cytotoxic effect, number of live cells” value in [4] (after 24 h and 48 h treatment) is given as “no cytotoxic effect”. For the same compound, the Mdm2 protein level entry in data set [8] is on record as “modest degradation”.
`COc1ccc(C2=N[C@@H](c3ccc(Cl)cc3)[C@@H](c3ccc(Cl)cc3)N2C(=O)N2CCNC(=O)C2)c(OC(C)C)c1` [Nutlin-3, reference compound]: in [9], the IC50 is over 10 µM.
